# From patent publication US20110086877A1 (priority 2005, published 2011)
# Values joined by “and” are separate entries in the source; they are usually repeats but may differ in a detail not shown here. Equal values may be shown once.
# Biological target: BoNT/A LC metalloprotease (Clostridium botulinum, UniProt P0DPI0)
# Assay: biochemical
# Conditions: not given
# BoNT/A LC metalloprotease, sequence (P0DPI0 2-448 limits assumed): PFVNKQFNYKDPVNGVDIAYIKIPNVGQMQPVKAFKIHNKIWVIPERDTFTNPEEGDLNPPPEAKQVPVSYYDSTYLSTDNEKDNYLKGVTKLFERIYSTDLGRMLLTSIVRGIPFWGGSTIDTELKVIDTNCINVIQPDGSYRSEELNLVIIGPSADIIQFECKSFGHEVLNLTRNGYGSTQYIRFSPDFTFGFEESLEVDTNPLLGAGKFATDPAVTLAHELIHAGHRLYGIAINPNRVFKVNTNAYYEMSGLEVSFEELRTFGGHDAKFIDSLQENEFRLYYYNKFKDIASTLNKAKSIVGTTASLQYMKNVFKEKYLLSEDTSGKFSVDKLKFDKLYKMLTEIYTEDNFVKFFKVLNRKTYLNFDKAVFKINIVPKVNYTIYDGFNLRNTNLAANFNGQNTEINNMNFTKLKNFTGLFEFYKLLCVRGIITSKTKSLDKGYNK
row,Compound,% Inhibition of BoNT/A LC metalloprotease activity [%]
1,N=C(N)c1ccc2oc(/C=C/c3cc4cc(C(=N)N)ccc4s3)cc2c1 [NSC 266472],57
2,N=C(N)c1ccc2[nH]c(/C=C/c3cc4cc(C(=N)N)ccc4o3)cc2c1 [NSC 290107],52
3,N=C(N)c1ccc2oc(/C=C/C=C/c3cc4cc(C(=N)N)ccc4o3)cc2c1 [NSC 300511],37
4,C(=C\c1cc2ccc(C3=NCCN3)cc2o1)/c1cc2ccc(C3=NCCN3)cc2o1 [NSC 294494],45
5,C1=NC(c2ccc3cc(-c4c(-c5ccc(C6=NCCN6)cc5)[nH]c5cc(C6=NCCN6)ccc45)[nH]c3c2)NC1 (stereo not shown) [NSC 341911],37
6,N=C(N)c1ccc(/C=C/c2cc3cc(C(=N)N)ccc3[nH]2)cc1 [NSC 317884],47
7,N=C(N)c1ccc(/C=C/c2cc3ccc(C(=N)N)cc3[nH]2)cc1 [NSC 317886],43
8,C(=C\c1cc2cc(C3=NCCN3)ccc2s1)/c1ccc(C2=NCCN2)cc1 [NSC 317883],41
9,C(=C\c1cc2cc(C3=NCCN3)ccc2o1)/c1cc2cc(C3=NCCN3)ccc2[nH]1 [NSC 290108],51
10,c1cc2cc(-c3cc4ccc(C5=NCCN5)cc4[nH]3)[nH]c2cc1C1=NCCN1 [NSC 330688],43
11,N=C(N)c1ccc2[nH]c(/C=C/c3cc4ccc(C(=N)N)cc4o3)cc2c1 [NSC 294203],46
12,C(=C\c1cc2ccc(C3=NCCN3)cc2[nH]1)/c1ccc(Oc2ccc(C3=NCCN3)cc2)cc1 [NSC 330690],53
13,N=C(N)c1ccc(Oc2ccc(-c3cc4ccc(C(=N)N)cc4[nH]3)cc2)cc1 [NSC 240898],61
14,C(/C=C/c1cc2cc(C3=NCCN3)ccc2o1)=C\c1cc2cc(C3=NCCN3)ccc2o1 [NSC 308571],52
15,N=C(N)N/N=C/c1ccc(-c2cc3ccc(/C=N/NC(=N)N)cc3s2)cc1 [NSC 341909],68
16,C(=C\c1cc2ccc(C3=NCCN3)cc2o1)/c1cc2cc(C3=NCCN3)ccc2[nH]1 [NSC 294204],38
17,C(=C\c1ccc2[nH]c(C3=NCCN3)cc2c1)/c1ccc(Oc2ccc(C3=NCCN3)cc2)cc1 [NSC 352341],40
18,C(=C\c1cc2ccc(C3=NCCN3)cc2[nH]1)/c1ccc2cc(C3=NCCN3)[nH]c2c1 [NSC 341907],60
19,c1cc2cc(-c3ccc(-c4cc5ccc(C6=NCCN6)cc5[nH]4)cc3)[nH]c2cc1C1=NCCN1 [NSC 317881],45
20,N=C(N)c1ccc2cc(/C=C/c3cc4ccc(C(=N)N)cc4o3)[nH]c2c1 [NSC 294200],48
21,C(=C\c1cc2cc(C3=NCCN3)ccc2o1)/c1cc2cc(C3=NCCN3)ccc2o1 [NSC 278999],53
22,N=C(N)c1ccc2oc(/C=C/C=C/C=C/c3cc4cc(C(=N)N)ccc4o3)cc2c1 [NSC 308574],63
23,C(=C/c1cc2cc(C3=NCCN3)ccc2o1)/c1cc2cc(C3=NCCN3)ccc2o1 [NSC 607617],36
24,C(=C\c1cc2ccc(C3=NCCN3)cc2[nH]1)/c1cc2ccc(C3=NCCN3)cc2[nH]1 [NSC 317880],35

# Same assay, conditions: at 10 μM
row,Compound,inhibition at 10 µM [%]
1,CCN(CC)CCCNc1cc(C)nc2c1ccc1c2ccc2c(NCCCN(CC)CC)cc(C)nc21 [NSC 328398],45

# Biological target: BoNT/A holotoxin (Clostridium botulinum, UniProt P0DPI1)
# Assay: not given
# Type: cell-based
# Conditions: not given
# BoNT/A holotoxin, sequence (P0DPI1 2-448 limits assumed): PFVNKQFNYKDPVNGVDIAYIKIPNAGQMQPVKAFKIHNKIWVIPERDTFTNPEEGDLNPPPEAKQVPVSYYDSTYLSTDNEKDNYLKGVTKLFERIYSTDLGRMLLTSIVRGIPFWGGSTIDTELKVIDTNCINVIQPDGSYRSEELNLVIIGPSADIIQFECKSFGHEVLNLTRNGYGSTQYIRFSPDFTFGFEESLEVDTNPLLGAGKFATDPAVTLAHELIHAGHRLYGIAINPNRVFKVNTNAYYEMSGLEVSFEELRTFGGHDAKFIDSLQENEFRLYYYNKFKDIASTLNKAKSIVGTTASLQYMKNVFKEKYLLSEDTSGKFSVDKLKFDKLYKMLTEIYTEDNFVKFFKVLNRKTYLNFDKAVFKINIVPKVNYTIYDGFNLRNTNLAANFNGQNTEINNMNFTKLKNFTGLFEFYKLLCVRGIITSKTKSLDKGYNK
row,Compound,inhibition of SNAP-25 cleavage
1,N=C(N)c1ccc(Oc2ccc(-c3cc4ccc(C(=N)N)cc4[nH]3)cc2)cc1 [NSC 240898],robust dose-dependent inhibition

# Biological target: T1, BoNT/A LC (Clostridium botulinum, UniProt P0DPI0)
# Assay: biochemical
# Type: binding
# Conditions: not given
# T1 sequence (P0DPI0 2-448 limits assumed): as the sequence (P0DPI0 2-448 limits assumed) above
Compound,ΔH,ΔS
N=C(N)c1ccc(Oc2ccc(-c3cc4ccc(C(=N)N)cc4[nH]3)cc2)cc1 [NSC 240898],−3.04 and −3.04 ± 0.20 kcal mol^−1,14 and 14.0 cal mol^−1 K^−1

# Same assay, conditions: Kd
row,Compound,Kd
1,N=C(N)c1ccc(Oc2ccc(-c3cc4ccc(C(=N)N)cc4[nH]3)cc2)cc1 [NSC 240898],~4.6 µM and 4.6 µM

# Same assay, conditions: pH 7.4
Compound,Ka [M⁻¹],"N (number of binding sites, stoichiometry)"
N=C(N)c1ccc(Oc2ccc(-c3cc4ccc(C(=N)N)cc4[nH]3)cc2)cc1 [NSC 240898],218000 ± 45000,0.83±0.04

# Biological target: anthrax lethal factor (Bacillus anthracis, UniProt P15917)
# Assay: not given
# Type: biochemical
# Conditions: not given
# anthrax lethal factor, sequence (P15917 34-809 limits assumed): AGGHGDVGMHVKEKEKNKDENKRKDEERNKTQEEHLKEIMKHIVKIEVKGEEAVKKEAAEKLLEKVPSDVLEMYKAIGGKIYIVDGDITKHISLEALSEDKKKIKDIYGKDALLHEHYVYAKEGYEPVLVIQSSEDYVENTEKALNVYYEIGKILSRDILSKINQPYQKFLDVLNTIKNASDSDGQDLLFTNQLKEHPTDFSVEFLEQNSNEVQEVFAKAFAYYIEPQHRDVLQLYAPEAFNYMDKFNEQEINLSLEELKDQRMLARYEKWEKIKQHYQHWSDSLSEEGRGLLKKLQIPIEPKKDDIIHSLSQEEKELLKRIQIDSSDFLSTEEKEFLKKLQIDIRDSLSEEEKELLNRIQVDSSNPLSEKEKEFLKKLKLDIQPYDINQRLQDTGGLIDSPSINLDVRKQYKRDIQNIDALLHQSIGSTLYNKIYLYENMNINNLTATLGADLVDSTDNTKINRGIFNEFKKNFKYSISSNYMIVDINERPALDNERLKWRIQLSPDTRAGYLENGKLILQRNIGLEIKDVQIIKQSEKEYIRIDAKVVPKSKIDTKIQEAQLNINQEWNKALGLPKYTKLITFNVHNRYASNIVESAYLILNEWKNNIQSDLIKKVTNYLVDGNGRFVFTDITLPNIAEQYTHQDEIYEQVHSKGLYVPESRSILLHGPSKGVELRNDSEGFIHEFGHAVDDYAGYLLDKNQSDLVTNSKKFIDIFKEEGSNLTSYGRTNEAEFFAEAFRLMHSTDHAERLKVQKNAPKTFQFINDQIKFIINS
row,Compound,inhibition of protease activity of anthrax lethal factor
1,N=C(N)c1ccc2[nH]c(/C=C/c3cc4cc(C(=N)N)ccc4o3)cc2c1 [NSC 290107],inhibit the protease activity of anthrax lethal factor
2,N=C(N)c1ccc2oc(/C=C/C=C/c3cc4cc(C(=N)N)ccc4o3)cc2c1 [NSC 300511],inhibit the protease activity of anthrax lethal factor
3,C1=NC(c2ccc3cc(-c4c(-c5ccc(C6=NCCN6)cc5)[nH]c5cc(C6=NCCN6)ccc45)[nH]c3c2)NC1 (stereo not shown) [NSC 341911],inhibit the protease activity of anthrax lethal factor
4,N=C(N)c1ccc(/C=C/c2cc3cc(C(=N)N)ccc3[nH]2)cc1 [NSC 317884],inhibit the protease activity of anthrax lethal factor
5,N=C(N)c1ccc(/C=C/c2cc3ccc(C(=N)N)cc3[nH]2)cc1 [NSC 317886],inhibit the protease activity of anthrax lethal factor
6,C(=C\c1cc2cc(C3=NCCN3)ccc2o1)/c1cc2cc(C3=NCCN3)ccc2[nH]1 [NSC 290108],inhibit the protease activity of anthrax lethal factor
7,N=C(N)c1ccc2[nH]c(/C=C/c3cc4ccc(C(=N)N)cc4o3)cc2c1 [NSC 294203],inhibit the protease activity of anthrax lethal factor
8,N=C(N)c1ccc(Oc2ccc(-c3cc4ccc(C(=N)N)cc4[nH]3)cc2)cc1 [NSC 240898],inhibit the protease activity of anthrax lethal factor
9,C(/C=C/c1cc2cc(C3=NCCN3)ccc2o1)=C\c1cc2cc(C3=NCCN3)ccc2o1 [NSC 308571],inhibit the protease activity of anthrax lethal factor
10,N=C(N)N/N=C/c1ccc(-c2cc3ccc(/C=N/NC(=N)N)cc3s2)cc1 [NSC 341909],inhibit the protease activity of anthrax lethal factor
11,C(=C\c1cc2ccc(C3=NCCN3)cc2o1)/c1cc2cc(C3=NCCN3)ccc2[nH]1 [NSC 294204],inhibit the protease activity of anthrax lethal factor
12,C(=C\c1cc2ccc(C3=NCCN3)cc2[nH]1)/c1ccc2cc(C3=NCCN3)[nH]c2c1 [NSC 341907],inhibit the protease activity of anthrax lethal factor
13,c1cc2cc(-c3ccc(-c4cc5ccc(C6=NCCN6)cc5[nH]4)cc3)[nH]c2cc1C1=NCCN1 [NSC 317881],inhibit the protease activity of anthrax lethal factor
14,N=C(N)c1ccc2cc(/C=C/c3cc4ccc(C(=N)N)cc4o3)[nH]c2c1 [NSC 294200],inhibit the protease activity of anthrax lethal factor
15,N=C(N)c1ccc2oc(/C=C/C=C/C=C/c3cc4cc(C(=N)N)ccc4o3)cc2c1 [NSC 308574],inhibit the protease activity of anthrax lethal factor
16,C(=C\c1cc2ccc(C3=NCCN3)cc2[nH]1)/c1cc2ccc(C3=NCCN3)cc2[nH]1 [NSC 317880],inhibit the protease activity of anthrax lethal factor

# Test system: chick spinal motor neurons
# Assay: not given
# Conditions: not given
row,Compound,"morphological signs of damage (tubulin, actin, DNA staining)"
1,N=C(N)c1ccc(Oc2ccc(-c3cc4ccc(C(=N)N)cc4[nH]3)cc2)cc1 [NSC 240898],little or no morphological signs of damage

# Same assay, conditions: chick
Compound,concentration tolerated by cells without substantial cytotoxic effects,concentration at which highly cytotoxic [µM]
N=C(N)c1ccc(Oc2ccc(-c3cc4ccc(C(=N)N)cc4[nH]3)cc2)cc1 [NSC 240898],about 40 μM,–
N=C(N)N/N=C/c1ccc(-c2cc3ccc(/C=N/NC(=N)N)cc3s2)cc1 [NSC 341909],–,1 to 5
N=C(N)c1ccc2oc(/C=C/C=C/C=C/c3cc4cc(C(=N)N)ccc4o3)cc2c1 [NSC 308574],–,1 to 5

# Biological target: T1, BoNT/A LC
# Assay: not given
# Conditions: cited from earlier work
Compound,inhibition of BoNT/A LC by known protease inhibitors,inhibitor potency in words
NCCCC[C@H](N[C@@H](CCc1ccccc1)C(=O)O)C(=O)N1CCC[C@H]1C(=O)O [lysinopril],inhibited by mM concentrations,–
CCOC(=O)[C@H](CCc1ccccc1)N[C@@H](C)C(=O)N1CCC[C@H]1C(=O)O [enalapril],inhibited by mM concentrations,–
CRATKML,–,potent inhibitor
C[C@H](CS)C(=O)N1CCC[C@H]1C(=O)O [captopril],inhibited by mM concentrations,–
